System: Umbilical cord derived mesenchymal stem cells (UC-MSC)
Test: Test 4: induction of oxidative stress resistance (Rotenone treatment, nucleus count)
Type: cell-based
Settings: Rotenone 0 nM, 100 nM, 200 nM, 500 nM, 1 μM; after 48 hours; FIG. 11
Method: (UC-MSC; Umbilical Cord derived Mesenchymal Stem Cells Wharton's Jelly (HMSC-WJ), FC-0020, LIFELINE CELL TECHNOLOGY Co., Ltd.; UC-MSC; Umbilical Cord derived Mesenchymal Stem Cells ScienCell Research Laboratories, Inc; and Umbilical Cord derived Mesenchymal Stem Cells ATCC) were conditioned with a recommended medium of each entity at 37° C. under 5% of CO2, and they were exchanged with the recommended medium of each entity or the medium of Example 1 (0.3-1×10^5 cells/well; 6 well plate). The passage was carried out every 2 to 3 days and those cells were treated with Rotenone of the following concentrations (0 nM, 100 nM, 200 nM, 500 nM, 1 μM). After 48 hours, these cells were stained with Hoechest33258 and the number of nucleus was counted using ImageXpress (Molecular Devices, LLC.).

Structure (SMILES): C=C(C)[C@H]1Cc2c(ccc3c2O[C@@H]2COc4cc(OC)c(OC)cc4[C@@H]2C3=O)O1 [Rotenone]
- cell number of UC-MSC: decreases in a concentration dependent manner
